# Measured values published in patent publication US10125095B2, “Abscisic acid derivative” (NATIONAL UNIVERSITY CORPORATION SHIZUOKA UNIVERSITY, priority 2014, dated 2018).
# How the values were obtained:
# [1] = test system: seeds of thale cress (Arabidopsis thaliana, Col-0); assay: Thale cress seed germination test; assay type: in vivo
# Procedure: Seeds of thale cress (Arabidopsis thaliana, Col-0) were immersed in 500 μL of an aqueous solution of 70% ethanol for 30 minutes, subsequently in 500 μL of a 100% ethanol solution for 1 minute, washed five times in 1 mL of distilled water, then immersed in distilled water and, in a dark place, vernalized at 4° C. for 3 days. A solution of the sample in methanol was put in a 1.5 mL-microtube, and methanol was removed therefrom under reduced pressure. An aqueous solution of 0.5% agar (containing ½ MS medium inorganic salts) at 70° C. was added thereto and stirred, and subsequently the obtained mixture was placed in a 96-well plate to prepare the medium containing the sample. All samples were prepared so as to have a concentration of 3 μM of the compound in Examples 1 to 9 and Comparative Example 1. Further, when ABA is applied, the ABA concentration was adjusted to 0.3 μM. 20 to 30 vernalized seeds of thale cress were planted in each well and cultured at 22° C. under continuous light to monitor the number of seeds germinated over time. The germination rate was calculated by the following formula (1). Note that those cultured in medium prepared using methanol in the same manner were used as controls. […] Germination rate (%)=Number of seeds germinated/Number of seeds planted×100 (1)
# The same test was carried out as in Test Example 1 with the concentrations of the compound of Example 1 for treatment varying from 0.3 μM to 30 μM.
# Similarly, the same test was carried out with the concentrations of the compound of Example 2 for treatment varying from 0.3 μM to 30 μM.
# The same test was carried out as in Test Example 2 with the concentrations of the compounds for treatment varying from 0.3 μM to 3 μM to compare the recovery effects on seed germination rate of the compound of Example 1 and the compound of Comparative Example 1.
# recombined PYL5 = molecular target: T1, recombined PYL5 (Arabidopsis thaliana, UniProt Q9FLB1); assay: Bonding affinity measurement using an isothermal titration calorimeter; assay type: binding, thale cress; conditions: ITC, 20° C., sodium phosphate buffer
# T1 construct: 6xHis (N); made in house; host or cells: Escherichia coli BL21-codonplus(DE3)-RIPL
# T1 sequence (Q9FLB1 1-203): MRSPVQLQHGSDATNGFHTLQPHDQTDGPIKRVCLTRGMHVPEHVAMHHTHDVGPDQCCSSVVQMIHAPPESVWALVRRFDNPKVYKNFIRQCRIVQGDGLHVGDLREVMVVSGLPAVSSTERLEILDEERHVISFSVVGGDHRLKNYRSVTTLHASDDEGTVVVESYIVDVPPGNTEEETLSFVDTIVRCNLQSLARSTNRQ
# Procedure: A sodium phosphate buffer solution of a recombined PYL5 was prepared in the same procedure as in Test Example 5, and put in a reaction cell of an isothermal titration calorimeter (GE Healthcare, MicroCal iTC200), and a sodium phosphate buffer solution of the compound of Example 1 was put in the syringe. Then, the calorimeter was set to 20° C. and the measurement was carded out. The same measurement as above was also carried out for the compounds of Examples 7 to 9.
# [2] = test system: thale cress (Arabidopsis thaliana, Col-0) seedlings; assay: Thale cress growth test; assay type: in vivo; conditions: 50 μM compound co-applied with 5 μM ABA, sprayed once a day; three weeks' culture
# Procedure: Seeds of thale cress (Arabidopsis thaliana, Col-0) were sequentially immersed for 1 minute respectively in 500 μL of an aqueous solution of 5% bleach+1% SDS, 500 μL of a 70% aqueous solution of ethanol and 500 μL of a 70% aqueous solution of ethanol, washed five times in 1 mL of sterilized water, and then suspended in a 0.1% aqueous solution of agar. 25 mL each of germination medium (containing ½ MS medium inorganic salts) sterilized in an autoclave was added to a sterilized plastic petri dish, in which 60 to 80 seeds suspended in the 0.1% aqueous solution of agar were planted and, in a dark place, the seeds were vernilized at 4° C. for 3 days. The seeds were cultured at 22° C. under continuous light for 10 days. 40 g […] of sterilized soil (organic culture soil:vermiculite=1:1) was added to a plastic pot (50 mm×50 mm×50 mm, 35 mm bottom surface×35 mm height). Six plastic pots thus provided were placed in a 3000 mL-tray, 300 mL (depth 10 mm) of an aqueous solution of 1000-fold diluted HYPONeX (tradename (registered trademark), product of HYPONeX JAPAN CORP., LTD.) was added thereto and five roots each of thale cress seedlings were transplanted from the plastic petri dish. The seedlings were cultured at 22° C. under conditions of 16 hour light period-8 hour dark period, and 1 mL of an aqueous solution (prepared so as the final concentration of the compound of Example 7 to be 50 μM) of 0.1% DMSO (containing the compound of Example 7)+0.1% Approach BI (tradename (registered trademark), product of Kao Corporation) was sprayed once a day. Further, 300 mL of an aqueous solution of 2000-fold diluted HYPONeX was added every week. The same treatment as above was carried out using the compound of Comparative Example 1. Note that the seedlings, to which 1 mL of an aqueous solution of 0.1% DMSO+0.1% Approach BI without containing the above compound was sprayed once a day, were used as controls. […]
# [3] = test system: bok choy (Brassica rapa var. chinensis) seeds; assay: Bok choy seed germination test; assay type: in vivo; conditions: co-applied with ABA
# [4] = test system: lettuce (Lactuca saliva) seeds; assay: Lettuce seed germination test; assay type: in vivo; conditions: co-applied with ABA
# [5] = 3 μM compound co-applied with 0.3 μM ABA
Kd (recombined PYL5) [nM],ΔG (recombined PYL5) [kcal/mol],ΔH (recombined PYL5) [kcal/mol],−TΔS (recombined PYL5) [kcal/mol],Compound,"Germination rate (%) 24 Hours later [1, 5] [%]","Germination rate (%) 36 Hours later [1, 5] [%]","Germination rate (%) 48 Hours later [1, 5] [%]","Germination rate (%) 60 Hours later [1, 5] [%]","Germination rate (%) 24 Hours later ([1]; compound alone, 3 μM) [%]","Germination rate (%) 36 Hours later ([1]; compound alone, 3 μM) [%]","Germination rate (%) 48 Hours later ([1]; compound alone, 3 μM) [%]","Germination rate (%) 60 Hours later ([1]; compound alone, 3 μM) [%]",Growth suppression effect of ABA on thale cress [2],Recovery of seed germination rate decreased by ABA [3],Recovery of seed germination rate decreased by ABA ([1]; compound 0.3 μM to 30 μM co-applied with ABA),Recovery of seed germination rate decreased by ABA [4]
480 ± 100,-9.6 ± 0.1,-9.7 ± 0.2,1.2,"CCCCCCSC1=C(C)[C@](O)(/C=C/C(C)=C\C(=O)O)C(C)(C)CC1=O [Comparative Example 1, 3′-hexylsulfanyl-abscisic acid, reference compound]",0,28,67,89,0,85,100,100,the growth suppression effect of ABA was not substantially improved,,,
,,,,CC1=C[C@@H](OCC#Cc2cccc3ccccc23)CC(C)(C)[C@@]1(O)/C=C/C(C)=C\C(=O)O [Example 2],9,22,53,89,11,27,77,100,,recovered the seed germination rates once decreased by ABA,seed germination rates decreased by ABA are recovered,recovered the seed germination rates once decreased by ABA
